Patent publication US7713960B2, “Inhibition of the Raf/Mek/P-Erk pathway for treating cancer” (University of South Florida, priority 2005, dated 2010)
Where a name gives a salt, the structure may show the parent alone.

Tests used:
SNB-19 cells = assay: Total cellular cAMP measurement, SNB-19; format: cell-based, human
Method: Total cellular cAMP measurement—The measurement of total cellular cAMP was done using a cAMP Biotrak ™ Enzymeimmunoassay (EIA) system (Amersham Biosciences, Piscataway, N.J.) according to the manufacturer's protocol. Briefly, 2000 cells were plated into each well of a 96 well plate. The next day cells were treated with increasing concentrations of ARA-211 or with vehicle for one hour. Alternatively, MDA-MB-231 cells were pre-treated with antagonists to the α1 (Prazosin, Sigma), α2 (Yohimbine, Sigma), β1 (Metoprolol, Sigma), and β2 (ICI 118.551, Sigma) adrenergic receptors at 100 nM for 15 minutes followed by treatment with 10 μM ARA-211 for 45 minutes. Cells were then lysed directly in the wells using the supplied lysis buffer. The lysate was transferred to a 96-well cAMP ELISA plate, and results were quantified using a Wallac Victor 2 plate reader.

P-Erk 1/2 [1] = assay: P-Erk 1/2 levels (Western blotting), SF-539; format: cell-based, human
Method: (§1) Western Blotting—Treated cell samples were lysed in 30 mM HEPES, 10 mM NaCl, 5 mM MgCl2, 25 mM NaF, 1 mM EGTA, 1% Triton-X-100, 10% Glycerol, 2 mM Sodium orthovanidate, 10 μg/mL aprotinin, 10 μg/mL soybean trypsin inhibitor, 25 μg/mL leupeptin, 2 mM phenylmethylsulfonylfluoride (PMSF), 6.4 mg/mL p-nitrophenylphosphate for 30 minutes at 4° C., and proteins run on SDS-PAGE gels then transferred to nitrocellulose membranes. Membranes were blocked in either 5% milk in PBS, pH 7.4, containing 0.1% Tween-20 (PBS-T) or 1% BSA in TBS, pH 7.5, containing 0.1% Tween-20 (TBS-T). Phospho-STAT3 and phospho-AKT antibodies were diluted in 1% BSA in TBS-T while phospho-c-Raf, phospho-Mek, and phospho-p44/p42 MAPK antibodies (Cell Signaling) were diluted in 5% milk in PBS-T for either 1 hour at room temperature or overnight at 4° C. HRP-conjugated secondary antibodies (Jackson ImmunoResearch, West Grove, Pa.) were diluted in 5% milk in PBS-T or TBS-T at a 1:1000 dilution for one hour at room temperature. Western blots results were visualized using enhanced chemiluminescence. Stripping of the membranes for reblotting was done using stripping buffer (62.5 mM Tris pH 7.6, 2% SDS, 0.7% 2-mercaptoethanol) at 50° C. for 30 minutes.

P-Erk 1/2 [2] = assay: P-Erk 1/2 levels (Western blotting), A-549; format: cell-based, human
Method: as §1

P-Erk 1/2 [3] = assay: P-Erk 1/2 levels (Western blotting), HCT-116; format: cell-based, human
Method: as §1

P-Erk 1/2 [4] = assay: P-Erk 1/2 levels (Western blotting), SNB-19; format: cell-based, human
Method: as §1

HCT-116 cells = assay: Anchorage-dependent growth (MTT assay), HCT-116; format: cell-based, human
Method: MTT Assay—2000 cells per well were plated into 96 well tissue culture plates, and the cells were allowed to attach overnight at 37° C. with 10% CO2. Cells were then treated with increasing concentrations of ARA-211, or vehicle (DMSO) and incubated for four days. At that time treatment medium was removed and replaced with 100 μl of lmg/ml MTT (Sigma-Aldrich, St. Louis, Mo.) in media and incubated at 37° C., 10% CO2 for 3 hours. After 3 hours the MTT media was removed and replaced with 100 μl/well of DMSO, rocked at room temperature for 5 minutes, then absorbance read at 540 nm on a micro-plate reader.

MDA-MB-231 cells = assay: Apoptosis assay (Cell Death Detection ELISA), MDA-MB-231; format: cell-based, human; settings: 48 hours
Method: Apoptosis Assay—Apoptosis was analyzed using the Cell Death Detection ELISA (Roche, Indianapolis, Ind.) measuring cytoplasmic histone-associated mono- and oligonucleosome DNA fragments. Procedures were carried out according to the manufacturers protocol. Briefly, 1×10^5 cells were plated in 60 mm dishes and treated with various doses of ARA-211 or vehicle for 48 hours. Cells were lysed with the provided lysis buffer and lysate was incubated on the ELISA plate for 1 hour to capture the histone associated DNA indicative of apoptotic cells. Anti-DNA peroxidase conjugated antibody was added to detect the cleaved DNA and the microplate was washed and developed with ABTS substrate which was quantitated by microplate reader at 405 nm.

P-Mek-1 = P-Mek-1 levels (Western blotting), MDA-MB-231; format: cell-based, human
Method: as §1

P-Akt = P-Akt levels (Western blotting), MDA-MB-231; format: cell-based, human
Method: as §1

total Erk 1/2 = assay: Total Erk 1/2 levels, MDA-MB-231; format: cell-based, human; settings: at 10 nM
Method: as §1

c-Raf-1 = molecular target: T1, c-Raf-1 (Homo sapiens, UniProt P04049); assay: In vitro kinase assay, c-Raf-1 immunoprecipitated from MDA-MB-231 cells; format: biochemical; settings: immunoprecipitated kinase treated in vitro, 10 μM
T1 construct: c-Raf-1 and Mek-1, immunoprecipitated from MDA-MB-231 cells; endogenous in cells; host or cells: MDA-MB-231
Method: In Vitro Kinase Assays—MDA-MB-231 cells (2×10^6) were lysed for 30 minutes at 4° C. in RIPA-150 buffer (10 mM Tris pH 7.5, 150 mM NaCl, 10% glycerol, 5 mM EDTA, 1% Triton X-100, 0.1% SDS, 100 μM sodium orthovanadate, 1 μM aprotinin, 10 μM leupeptin, 10 μM antipain). Cell debris was pelleted at 13000 rpm for 15 minutes at 4° C. and the lysate was rocked overnight with 10 μg of either c-Raf or MEK antibodies (Santa Cruz Biotechnologies, Santa Cruz, Calif.). 25 μl of protein A/G PLUS agarose (Santa Cruz Biotechnology) was then added and rocked for 4 hours at 4° C. Samples were spun at 2000 rpm for 5 minutes to collect the agarose beads, which were then washed four times with lysis buffer. On the final wash each pellet was divided into 5. […]

P-Erk 1/2 [5] = assay: P-Erk 1/2 levels, MCF-7; format: cell-based, human; settings: MCF-7 (breast)
Method: as §1

P-Erk 1/2 [6] = assay: Growth factor (EGF) stimulation of P-Erk 1/2, MDA-MB-231 cells; format: cell-based, human

T1 sequence (P04049 whole entry): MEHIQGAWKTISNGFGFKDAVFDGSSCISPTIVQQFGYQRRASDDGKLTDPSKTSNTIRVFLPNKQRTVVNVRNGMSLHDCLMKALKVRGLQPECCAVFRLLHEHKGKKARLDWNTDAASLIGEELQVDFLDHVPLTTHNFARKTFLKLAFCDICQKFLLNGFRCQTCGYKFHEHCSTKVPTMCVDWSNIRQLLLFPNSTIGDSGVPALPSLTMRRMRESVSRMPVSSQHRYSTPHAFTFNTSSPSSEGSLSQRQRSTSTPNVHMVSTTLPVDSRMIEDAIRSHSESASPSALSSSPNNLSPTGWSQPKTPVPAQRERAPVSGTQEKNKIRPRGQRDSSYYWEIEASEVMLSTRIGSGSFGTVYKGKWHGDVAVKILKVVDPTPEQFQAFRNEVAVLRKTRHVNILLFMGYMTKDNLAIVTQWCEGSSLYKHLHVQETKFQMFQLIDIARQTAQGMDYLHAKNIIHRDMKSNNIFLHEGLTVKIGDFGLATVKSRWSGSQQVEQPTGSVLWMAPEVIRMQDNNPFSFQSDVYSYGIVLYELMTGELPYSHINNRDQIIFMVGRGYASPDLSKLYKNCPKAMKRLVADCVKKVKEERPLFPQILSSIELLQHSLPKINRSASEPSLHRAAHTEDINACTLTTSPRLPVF

Q: Which “cAMP (Fold Induction)” value (SNB-19 cells) does the source give for `CC(C)(C)NCC(O)c1ccc(O)c(CO)n1` (stereo not shown) [ARA-211, 2-hydroxymethyl-3-hydroxy-6-(1-hydroxy-2-tert-butylaminoethyl) pyridine, dihydrochloride] here?
A: Its value is 1.2 ± 0.4 Fold.

Q: What about the “P-Erk ½ (% Inhibition)” value (P-Erk 1/2 [1]) of the same molecule?
A: Its value is 100%.

Q: And the “P-Erk ½ (% Inhibition)” value (P-Erk 1/2 [2])?
A: The value was 0%.

Q: What about the “P-Erk ½ (% Inhibition)” value (P-Erk 1/2 [3]) of the same molecule?
A: The value was 0%.

Q: What about the “P-Erk ½ (% Inhibition)” value (P-Erk 1/2 [4]) of the same molecule?
A: Its value is 0%.

Q: What about the “Anchorage Dependent Growth (% Inhibition)” value (HCT-116 cells) of the same molecule?
A: The value was 6.5 ± 4%.

Q: What about the “Apoptosis (% Induction)” value (MDA-MB-231 cells) of the same molecule?
A: The value was 15 ± 4%.

Q: What about the P-Mek-1 levels (P-Mek-1) of the same molecule?
A: The P-Mek-1 levels was “suppressed”.

Q: What about the P-Akt levels (P-Akt) of the same molecule?
A: Its P-Akt levels is “not”.

Q: What about the “levels of total Erk 1/2” value (total Erk 1/2) of the same molecule?
A: Its value is “without affecting”.

Q: And the “in vitro c-Raf-1 kinase activity” value (c-Raf-1)?
A: The value was “did not inhibit”.

Q: And the “inhibition of P-Erk 1/2 levels” value (P-Erk 1/2 [5])?
A: The value was “did not”.

Q: And the “growth factor (EGF) stimulation of P-Erk 1/2” value (P-Erk 1/2 [6])?
A: The value was “is blocked”.
